Values of other authors in PMC9516332 (Frontiers in Oncology, 2022).
Where two headings read alike, the source gives them in different places.

Key:
Conditions in all cases: cited from earlier work
[1] = target: panel of 255 wild-type kinases (Homo sapiens, UniProt O00311)
[2] = target: panel of 255 wild-type kinases (Homo sapiens, UniProt P17612)
[3] = target: panel of 255 wild-type kinases (Homo sapiens, UniProt P23443)
[4] = target: panel of 255 wild-type kinases (Homo sapiens, UniProt P31751)
[5] = target: T1, panel of 255 wild-type kinases (Homo sapiens, UniProt P54762)
T1 sequence (P54762 18-984): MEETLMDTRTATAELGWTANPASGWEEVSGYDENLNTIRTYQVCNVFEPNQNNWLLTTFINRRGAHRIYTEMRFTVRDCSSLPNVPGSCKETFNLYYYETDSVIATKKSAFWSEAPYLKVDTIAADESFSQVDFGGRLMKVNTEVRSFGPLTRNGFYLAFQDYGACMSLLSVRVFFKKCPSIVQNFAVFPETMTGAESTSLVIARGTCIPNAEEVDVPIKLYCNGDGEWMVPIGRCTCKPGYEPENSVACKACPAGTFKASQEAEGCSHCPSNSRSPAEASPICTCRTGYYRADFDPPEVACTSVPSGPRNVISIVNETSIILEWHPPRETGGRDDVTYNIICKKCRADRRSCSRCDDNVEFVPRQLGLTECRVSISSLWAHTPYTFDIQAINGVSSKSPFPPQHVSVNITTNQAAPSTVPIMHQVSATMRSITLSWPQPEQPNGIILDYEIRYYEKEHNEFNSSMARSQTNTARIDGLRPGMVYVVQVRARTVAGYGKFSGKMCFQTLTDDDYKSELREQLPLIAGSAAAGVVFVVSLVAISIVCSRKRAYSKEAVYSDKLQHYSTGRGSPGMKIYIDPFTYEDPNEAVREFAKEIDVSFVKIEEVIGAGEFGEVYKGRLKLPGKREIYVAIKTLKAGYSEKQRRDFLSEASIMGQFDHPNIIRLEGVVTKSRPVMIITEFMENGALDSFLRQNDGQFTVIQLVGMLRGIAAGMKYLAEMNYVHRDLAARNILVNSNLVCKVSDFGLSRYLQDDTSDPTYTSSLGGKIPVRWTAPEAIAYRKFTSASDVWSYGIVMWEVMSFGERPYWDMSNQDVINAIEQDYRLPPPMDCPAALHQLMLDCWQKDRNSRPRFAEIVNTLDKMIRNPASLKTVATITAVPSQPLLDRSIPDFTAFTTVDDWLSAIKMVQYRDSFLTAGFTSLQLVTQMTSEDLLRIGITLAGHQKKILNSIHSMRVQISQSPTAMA

[6] = target: T2, panel of 255 wild-type kinases (Homo sapiens, UniProt Q12851)
T2 sequence (Q12851 1-820): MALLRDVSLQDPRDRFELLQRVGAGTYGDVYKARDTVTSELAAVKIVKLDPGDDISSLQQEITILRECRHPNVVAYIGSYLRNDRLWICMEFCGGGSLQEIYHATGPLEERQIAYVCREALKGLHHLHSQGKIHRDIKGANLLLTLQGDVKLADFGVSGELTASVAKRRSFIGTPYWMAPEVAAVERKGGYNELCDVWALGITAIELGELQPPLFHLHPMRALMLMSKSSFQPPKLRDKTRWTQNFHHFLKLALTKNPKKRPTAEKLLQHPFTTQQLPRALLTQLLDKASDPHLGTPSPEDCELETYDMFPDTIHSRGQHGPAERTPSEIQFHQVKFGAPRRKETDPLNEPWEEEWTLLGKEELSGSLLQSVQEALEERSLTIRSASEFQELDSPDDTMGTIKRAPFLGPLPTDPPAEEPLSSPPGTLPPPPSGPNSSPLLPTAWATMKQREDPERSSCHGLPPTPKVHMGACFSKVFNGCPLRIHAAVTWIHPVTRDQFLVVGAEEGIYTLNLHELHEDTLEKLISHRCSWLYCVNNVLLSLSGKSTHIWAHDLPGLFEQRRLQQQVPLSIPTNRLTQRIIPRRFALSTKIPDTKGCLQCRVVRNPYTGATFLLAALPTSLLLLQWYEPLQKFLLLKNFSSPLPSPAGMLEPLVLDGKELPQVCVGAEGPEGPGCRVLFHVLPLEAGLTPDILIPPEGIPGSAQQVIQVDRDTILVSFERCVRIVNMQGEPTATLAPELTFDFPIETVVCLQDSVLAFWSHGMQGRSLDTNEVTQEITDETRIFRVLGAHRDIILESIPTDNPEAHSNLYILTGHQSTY

[7] = target: panel of 255 wild-type kinases (Homo sapiens, UniProt Q13554)
[8] = target: panel of 255 wild-type kinases (Homo sapiens, UniProt Q96SB4)
[9] = tested on: panel of 255 wild-type kinases
[10] = CDC7/ASK kinase assay, 1 µmol/L single concentration, ref DOI: 10.1158/1535-7163.MCT-18-0877
[11] = kinase PKACα, 1 µmol/L single concentration, ref DOI: 10.1158/1535-7163.MCT-18-0877
[12] = p70S6K, 1 µmol/L single concentration, ref DOI: 10.1158/1535-7163.MCT-18-0877
[13] = AKT2 kinase assay, 1 µmol/L single concentration, ref DOI: 10.1158/1535-7163.MCT-18-0877
[14] = kinase EPHB1, 1 µmol/L single concentration, ref DOI: 10.1158/1535-7163.MCT-18-0877
[15] = kinase MAP4K2, 1 µmol/L single concentration, ref DOI: 10.1158/1535-7163.MCT-18-0877
[16] = CaMK2β kinase assay, 1 µmol/L single concentration, ref DOI: 10.1158/1535-7163.MCT-18-0877
[17] = kinase SRPK1, 1 µmol/L single concentration, ref DOI: 10.1158/1535-7163.MCT-18-0877
[18] = kinase FYN [isoform b], 1 µmol/L single concentration, ref DOI: 10.1158/1535-7163.MCT-18-0877
[19] = kinase LYNb, 1 µmol/L single concentration, ref DOI: 10.1158/1535-7163.MCT-18-0877
[20] = kinase PKCβ2, 1 µmol/L single concentration, ref DOI: 10.1158/1535-7163.MCT-18-0877
[21] = kinase SRM, 1 µmol/L single concentration, ref DOI: 10.1158/1535-7163.MCT-18-0877
[22] = kinase EPHB1, 1 µmol/L single concentration, ref DOI: 10.1371/journal.pone.0092146

| SMILES | %-inhibition CDC7/ASK [1, 10] | %-inhibition at 1 µmol/L, PKACα [2, 11] | %-inhibition, p70S6K [3, 12] | %-inhibition AKT2 [4, 13] | %-inhibition at 1 µmol/L, EPHB1 [5, 14] | %-inhibition at 1 µmol/L, MAP4K2 [6, 15] | %-inhibition CaMK2β [7, 16] | %-inhibition at 1 µmol/L, SRPK1 [8, 17] | %-inhibition at 1 µmol/L, FYN [isoform b] [9, 18] | %-inhibition at 1 µmol/L, LYNb [9, 19] | %-inhibition at 1 µmol/L, PKCβ2 [9, 20] | %-inhibition at 1 µmol/L, SRM [9, 21] | further results |
| --- | --- | --- | --- | --- | --- | --- | --- | --- | --- | --- | --- | --- | --- |
| CC#CC(=O)N1CCC[C@H]1c1nc(-c2ccc(C(=O)Nc3ccccn3)cc2)c2c(N)nccn12 [acalabrutinib] | -1.64% | -5% | -14% | -2.69% | -1.4% | -11% | -1.09% | -4.73% | -1.25% | -2% | -12% | 39% |  |
| CCc1cc2c(cc1N1CCC(N3CCOCC3)CC1)C(C)(C)c1[nH]c3cc(C#N)ccc3c1C2=O [alectinib] | -0.8% | 5% | 2.73% | 0.306% | 21% | 7.56% | 2.14% | 83% | 12% | 15% | 0.0492% | 41% |  |
| COc1cc(N2CCC(N3CCN(C)CC3)CC2)ccc1Nc1ncc(Cl)c(Nc2ccccc2P(C)(C)=O)n1 [brigatinib] |  |  |  |  |  |  |  |  |  |  |  |  | %-inhibition CDC7/ASK [1]: 0.868%; %-inhibition at 1 µmol/L, PKACα [2]: 17%; %-inhibition, p70S6K [3]: 33%; %-inhibition AKT2 [4]: -1%; %-inhibition at 1 µmol/L, EPHB1 [5]: 36%; %-inhibition at 1 µmol/L, MAP4K2 [6]: 77%; %-inhibition CaMK2β [7]: 64%; %-inhibition at 1 µmol/L, SRPK1 [8]: 4%; %-inhibition at 1 µmol/L, FYN [isoform b] [9]: 56%; %-inhibition at 1 µmol/L, LYNb [9]: 43%; %-inhibition at 1 µmol/L, PKCβ2 [9]: 31%; %-inhibition at 1 µmol/L, SRM [9]: 92% |
| Cc1cc(Nc2ncc(Cl)c(Nc3ccccc3S(=O)(=O)C(C)C)n2)c(OC(C)C)cc1C1CCNCC1 [ceritinib] | -2.74% | -8% | 16% | -4.7% | 26% | 7.37% | 23% |  | -4% | 11% | 4% | 40% |  |
| O=C(c1ccc(F)c(F)c1Nc1ccc(I)cc1F)N1CC(O)([C@@H]2CCCCN2)C1 [cobimetinib] | 5% | -10% | 19% | -2.75% | 4% | -5.57% | -0.487% | -11% | -0.687% | 8% | -2% | 1.37% |  |
| C[C@@H](Oc1cc(-c2cnn(C3CCNCC3)c2)cnc1N)c1c(Cl)ccc(F)c1Cl [crizotinib] |  |  |  |  |  |  |  |  |  |  |  |  | %-inhibition at 1 µmol/L, PKACα ([2]; kinase PKACα, 1 µmol/L single concentration, ref DOI: 10.1371/journal.pone.0092146): -6%; %-inhibition, p70S6K ([3]; p70S6K, 1 µmol/L single concentration, ref DOI: 10.1371/journal.pone.0092146): 40%; %-inhibition AKT2 ([4]; AKT2 kinase assay, 1 µmol/L single concentration, ref DOI: 10.1371/journal.pone.0092146): -2.67%; %-inhibition at 1 µmol/L, EPHB1 [5, 22]: 93%; %-inhibition at 1 µmol/L, SRPK1 ([8]; kinase SRPK1, 1 µmol/L single concentration, ref DOI: 10.1371/journal.pone.0092146): 4.55%; %-inhibition at 1 µmol/L, LYNb [9]: 34%; %-inhibition at 1 µmol/L, PKCβ2 [9]: -1.6%; %-inhibition at 1 µmol/L, SRM [9]: 1.51% |
| CC(C)(C)c1nc(-c2cccc(NS(=O)(=O)c3c(F)cccc3F)c2F)c(-c2ccnc(N)n2)s1 [dabrafenib] |  |  |  |  |  |  |  |  |  |  |  |  | %-inhibition CDC7/ASK ([1]; CDC7/ASK kinase assay, 1 µmol/L single concentration, ref DOI: 10.1371/journal.pone.0092146): -6%; %-inhibition at 1 µmol/L, EPHB1 [5, 22]: 12%; %-inhibition at 1 µmol/L, MAP4K2 ([6]; kinase MAP4K2, 1 µmol/L single concentration, ref DOI: 10.1371/journal.pone.0092146): 8%; %-inhibition CaMK2β ([7]; CaMK2β kinase assay, 1 µmol/L single concentration, ref DOI: 10.1371/journal.pone.0092146): -0.277%; %-inhibition at 1 µmol/L, LYNb ([9]; kinase LYNb, 1 µmol/L single concentration, ref DOI: 10.1371/journal.pone.0092146): 86%; %-inhibition at 1 µmol/L, PKCβ2 ([9]; kinase PKCβ2, 1 µmol/L single concentration, ref DOI: 10.1371/journal.pone.0092146): -3%; %-inhibition at 1 µmol/L, SRM ([9]; kinase SRM, 1 µmol/L single concentration, ref DOI: 10.1371/journal.pone.0092146): 100% |
| CO[C@@H]1[C@H](N(C)C(=O)c2ccccc2)C[C@H]2O[C@]1(C)n1c3ccccc3c3c4c(c5c6ccccc6n2c5c31)C(=O)NC4 [midostaurin] | 60% | 93% | 82% |  |  | 94% |  | 1.28% |  |  |  |  |  |
